Data on 44 compounds can be found in patent publication US5229395A, “Potential anticancer agents derived from acridine” (Sloan-Kettering Institute For Cancer Research, priority 1991, dated 1993).

What is called IC50 is the point on the concentration scale where inhibition reaches its midpoint.

One test deals with mouse leukemia L1210 cells. Nature of the test: Inhibitory activity against growth of mouse leukemia L1210 cells in vitro. The format is cell-based. The following applies: Mus musculus, L1210; quoted in text from Table 6; read-out: IC50 value.
`OCc1ccc(Nc2c3ccccc3nc3ccccc23)cc1` [IIIc, 9-(4'-Hydroxymethyl)anilinoacridine]: the IC50 is 95 nM.

The same test, now with this note: Table 6, acridine derivatives of formula III, growth of mouse leukemia L1210 cells; read-out: IC50.
For `OCc1ccccc1Nc1c2ccccc2nc2ccccc12` [IIIa, 9-(2'-Hydroxymethyl)anilinoacridine], the IC50 was determined as 43000 nM.
As to `OCc1cccc(Nc2c3ccccc3nc3ccccc23)c1` [IIIb, 9-(3'-Hydroxymethyl)anilinoacridine], the IC50 was determined as 14 nM.
Same read-out and setting: as for `OCc1ccc(Nc2c3ccccc3nc3ccccc23)cc1` [IIIc, 9-(4'-Hydroxymethyl)anilinoacridine], the figure is 95 nM; as for `OCCc1ccccc1Nc1c2ccccc2nc2ccccc12` [IIId], 6500 nM; as for `OCCc1cccc(Nc2c3ccccc3nc3ccccc23)c1` [IIIe], 6.2 nM.
The same measure, in the same setting: as for `OCCc1ccc(Nc2c3ccccc3nc3ccccc23)cc1` [IIIf], the figure is 9.9 nM; as for `Cc1ccc2nc3ccccc3c(Nc3cccc(CO)c3)c2c1` [IIIg, 9-(3'-Hydroxymethyl)anilino-2-methylacridine], 850 nM; as for `Cc1ccc2c(Nc3cccc(CO)c3)c3ccccc3nc2c1` [IIIh, 9-(3'-Hydroxymethyl)anilino-3-methylacridine], 0.39 nM.
`COc1ccc2nc3ccccc3c(Nc3cccc(CO)c3)c2c1` [IIIi, 9-(3'-Hydroxymethyl)anilino-2-methoxyacridine]: the IC50 worked out at 3500 nM.
For `COc1ccc2c(Nc3cccc(CO)c3)c3ccccc3nc2c1` [IIIj, 9-(3'-Hydroxymethyl)anilino-3-methoxyacridine], the IC50 worked out at 0.063 nM.
On the same count and under the same terms, as for `COc1ccc2nc3ccc(C)cc3c(Nc3cccc(CO)c3)c2c1` [IIIk, 9-(3'-Hydroxymethyl)anilino-2-methoxy-7-methylacridine], the figure is 5800 nM; as for `COc1ccc2nc3cc(C)ccc3c(Nc3cccc(CO)c3)c2c1` [IIIl, 9-(3'-Hydroxymethyl)anilino-2-methoxy-6-methylacridine], 920 nM.
For the compound `COc1ccc2nc3ccc(OC)cc3c(Nc3cccc(CO)c3)c2c1` [IIIm, 9-(3'-Hydroxymethyl)anilino-2,7-dimethoxyacridine], the IC50 turned out to be 3400 nM.
On to `COc1ccc2c(Nc3cccc(CCO)c3)c3ccccc3nc2c1` [IIIn, 9-[3'-(β-hydroxyethyl)anilino]-3-methoxyacridine], for which the IC50 amounted to 0.023 nM.
In the case of `Cc1ccc2nc3ccccc3c(Nc3ccc(CO)cc3)c2c1` [IIIo, 9-(4'-Hydroxymethyl)anilino-2-methylacridine], the concentration for half-maximal inhibition (IC50) is 120 nM.
Consider `Cc1ccc2c(Nc3ccc(CO)cc3)c3ccccc3nc2c1` [IIIp, 9-(4'-Hydroxymethyl)anilino-3-methylacridine], for which the IC50 worked out at 6.7 nM.
For the compound `COc1ccc2nc3ccccc3c(Nc3ccc(CO)cc3)c2c1` [IIIq, 9-(4'-Hydroxymethyl)anilino-2-methoxyacridine], the IC50 was 620 nM.
In the case of `COc1ccc2c(Nc3ccc(CO)cc3)c3ccccc3nc2c1` [IIIr, 9-(4'-Hydroxymethyl)anilino-3-methoxyacridine], the IC50 is 29 nM.
`COc1ccc2nc3ccc(C)cc3c(Nc3ccc(CO)cc3)c2c1` [IIIs, 9-(4'-Hydroxymethyl)anilino-2-methoxy-7-methylacridine]: the IC50 was 58 nM.
For `COc1ccc2nc3cc(C)ccc3c(Nc3ccc(CO)cc3)c2c1` [IIIt, 9-(4'-Hydroxymethyl)anilino-2-methoxy-6-methylacridine], the IC50 was 650 nM.
Consider `COc1ccc2nc3ccc(OC)cc3c(Nc3ccc(CO)cc3)c2c1` [IIIu, 9-(4'-Hydroxymethyl)anilino-2,7-dimethoxyacridine], for which the IC50 came out at 3400 nM.
For `COc1ccc2c(Nc3ccc(CCO)cc3)c3ccccc3nc2c1` [IIIv], the IC50 turned out to be 18 nM.
The same measure, in the same setting: as for `COc1ccc2nc3ccc(OC)cc3c(Nc3ccc(CCO)cc3)c2c1` [IIIw], the figure is 690 nM.

The test is the same for the next values; noted with them: Table 7, carbamate esters of formula IV, mouse L1210 cells in vitro; read-out: IC50.
`CNC(=O)OCc1ccccc1Nc1c2ccccc2nc2ccccc12` [IVa, 9-[2'-(Methylaminocarbonyloxymethyl)anilino]acridine]: the IC50 was 8400 nM.
Same read-out and setting: as for `CC(C)NC(=O)OCc1ccccc1Nc1c2ccccc2nc2ccccc12` [IVb, 9-[2'-(Isopropylaminocarbonyloxymethyl)anilino]acridine], the figure is 9300 nM; as for `CNC(=O)OCc1cccc(Nc2c3ccccc3nc3ccccc23)c1` [IVc, 9-[3'-(Methylaminocarbonyloxymethyl)anilino]acridine], 4600 nM.
With `CC(C)NC(=O)OCc1cccc(Nc2c3ccccc3nc3ccccc23)c1` [IVd, 9-[3'-(Isopropylaminocarbonyloxymethyl)anilino]acridine], the IC50 is 9.1 nM.
`CNC(=O)OCc1ccc(Nc2c3ccccc3nc3ccccc23)cc1` [IVe, 9-[4'-(Methylaminocarbonyloxymethyl)anilino]acridine]: the IC50 turned out to be 38 nM.
Turning to `CC(C)NC(=O)OCc1ccc(Nc2c3ccccc3nc3ccccc23)cc1` [IVf, 9-[4'-(Isopropylaminocarbonyloxymethyl)anilino]acridine], the IC50 stood at 18 nM.
Regarding `CNC(=O)OCCc1cccc(Nc2c3ccccc3nc3ccccc23)c1` [IVg, 9-[3'-(β-Methylaminocarbonyloxyethyl)anilino]acridine], the IC50 turned out to be 5700 nM.
For the compound `CC(C)NC(=O)OCCc1cccc(Nc2c3ccccc3nc3ccccc23)c1` [IVh, 9-[3'-(β-Isopropylaminocarbonyloxyethyl)anilino]acridine], the IC50 stood at 0.91 nM.
Turning to `CNC(=O)OCCc1ccc(Nc2c3ccccc3nc3ccccc23)cc1` [IVi, 9-[4'-(β-Methylaminocarbonyloxyethyl)anilino]acridine], the IC50 turned out to be 3.9 nM.
Turning to `CC(C)NC(=O)OCCc1ccc(Nc2c3ccccc3nc3ccccc23)cc1` [IVj, 9-[4'-(β-Isopropylaminocarbonyloxyethyl)anilino]acridine], the IC50 stood at 48 nM.
On the same count and under the same terms, the figure for `CNC(=O)OCc1cccc(Nc2c3ccccc3nc3cc(OC)ccc23)c1` [IVk, 9-[3'-(Methylaminocarbonyloxymethyl)anilino]-3-methoxyacridine] is 1700 nM; for `COc1ccc2c(Nc3cccc(COC(=O)NC(C)C)c3)c3ccccc3nc2c1` [IVl, 9-[3'-(Isopropylaminocarbonyloxymethyl)anilino]-3-methoxyacridine] it is 890 nM.
Still for that read-out and setting: the figure for `CNC(=O)OCc1cccc(Nc2c3cc(OC)ccc3nc3ccc(OC)cc23)c1` [IVm, 9-[3'-(Methylaminocarbonyloxymethyl)anilino]-2,7-dimethoxyacridine] is 5000 nM; for `COc1ccc2nc3ccc(OC)cc3c(Nc3cccc(COC(=O)NC(C)C)c3)c2c1` [IVn, 9-[3'-(isopropylaminocarbonyloxymethyl)-anilino]-2,7-dimethoxyacridine] it is 4000 nM; for `CNC(=O)OCc1ccc(Nc2c3cc(OC)ccc3nc3ccc(OC)cc23)cc1` [IVo, 9-[4'-(Methylaminocarbonyloxymethyl)anilino]-2,7-dimethoxyacridine] it is 3600 nM.
Regarding `COc1ccc2nc3ccc(OC)cc3c(Nc3ccc(COC(=O)NC(C)C)cc3)c2c1` [IVp, 9-[4'-(Isopropylaminocarbonyloxymethyl)anilino]-2,7-dimethoxyacridine], the concentration for half-maximal inhibition (IC50) was 6600 nM.

Another test has as its system L1210 cells. Nature of the test: In vivo antileukemic effect (increased life span) in female BDF1 mice inoculated with L1210 cells. The following applies: 100 mg/kg; mice inoculated with 1.0×10^6 L1210 cells. Here is the method:
On the other hand, the corresponding methyl carbamate ester IVc gave good ILS values of 71% and >250% at the dose levels of 100 and 200 mg/kg, respectively.
With `CNC(=O)OCc1cccc(Nc2c3ccccc3nc3ccccc23)c1` [IVc, 9-[3'-(Methylaminocarbonyloxymethyl)anilino]acridine], the “ILS (increased life span)” value is listed as 71%.

The test is the same for the next values; noted with them: 200 mg/kg; mice inoculated with 1.0×10^6 L1210 cells.
With `CNC(=O)OCc1cccc(Nc2c3ccccc3nc3ccccc23)c1` [IVc, 9-[3'-(Methylaminocarbonyloxymethyl)anilino]acridine], the “ILS (increased life span)” value is greater than 250%.

The same test, now with this note: 100 and 150 mg/kg dose level; female BDF1 mice inoculated with 1.0×10^6 L1210 cells.
`OCc1ccc(Nc2c3ccccc3nc3ccccc23)cc1` [IIIc, 9-(4'-Hydroxymethyl)anilinoacridine]: the “ILS (increased life span)” value is 29%.

A further test relates to mouse leukemic cells L1210.
Assay: not given
The note with it: earlier work, U.S. Pat. No. 4,966,918; cited from earlier work.
As to `Cc1cc(O)c2c(c1)C(=O)c1cccc(O)c1C2=O` [Compound 1A, chrysophanol], the “activity against mouse leukemic cells L1210 in tissue culture” value (from here on “activity”) was “practically inactive”.
Consider `Cc1cc(O)c2c(c1)C(=O)c1cc(O)cc(O)c1C2=O` [Compound 1B, emodin], for which the “activity” value is “practically inactive”.
Turning to `O=C1c2cccc(O)c2C(=O)c2c(O)cc(CN(CCCl)CCCl)cc21` [Compound 3A, 3-[N,N-bis(2-chloroethyl)-amino]methyl-1,8-dihydroxy-9,10-anthraquinone], the “activity” value was “potent inhibitory activity”.
On to `COc1cc(O)c2c(c1)C(=O)c1cc(CN(CCCl)CCCl)cc(O)c1C2=O` [Compound 3B], for which the “activity” value is recorded as “potent inhibitory activity”.

A further test relates to DNA.
Assay: not given
The following applies: Denny and Wakelin, Cancer Res., 46:1717 (1986); cited from earlier work.
As for `COc1cc(NS(C)(=O)=O)ccc1Nc1c2ccccc2nc2ccccc12` [amsacrin], the “intercalation into DNA” value was “reversible”.

A further test deals with topoisomerse II.
Assay: not given
The following applies: Nelson et al. 1984; Pommier et al. 1984; cited from earlier work.
For `COc1cc(NS(C)(=O)=O)ccc1Nc1c2ccccc2nc2ccccc12` [amsacrin], the “DNA cleavage mediated by topoisomerse II” value is listed as “appears to induce DNA cleavage”.
